Experimental data taken from ChEMBL document CHEMBL1152277, “Lead optimization of 4-acetylamino-2-(3,5-dimethylpyrazol-1-yl)-6-pyridylpyrimidines as A2A adenosine receptor antagonists for the treatment of Parkinson's disease” (J Med Chem, 2008).
Converted amounts (≈) assume the structure as drawn. The source made the active and inactive calls. The calls are words filed in the database; no cut-off is given here.

Tests used:
Homo sapiens = organism: Homo sapiens; experiment: Selectivity ratio of Ki for human adenosine A1 receptor to Ki for human adenosine A2A receptor
Adenosine receptor A1 = target: T1, Adenosine receptor A1 (Homo sapiens, UniProt P30542); experiment: Displacement of [3H]DPCPX from human adenosine A1 receptor expressed in HEK293 cells; type: cell-based
T1 sequence (P30542 whole entry): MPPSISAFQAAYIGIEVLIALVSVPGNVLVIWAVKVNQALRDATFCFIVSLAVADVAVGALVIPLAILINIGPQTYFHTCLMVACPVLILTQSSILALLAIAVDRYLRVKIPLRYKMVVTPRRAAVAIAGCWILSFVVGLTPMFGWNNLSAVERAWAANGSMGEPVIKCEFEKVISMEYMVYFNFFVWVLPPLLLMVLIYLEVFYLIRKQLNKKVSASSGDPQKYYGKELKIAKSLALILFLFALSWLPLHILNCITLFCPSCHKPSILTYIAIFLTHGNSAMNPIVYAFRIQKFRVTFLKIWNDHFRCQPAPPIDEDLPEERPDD

Adenosine receptor A2a [1] = target: Adenosine receptor A2a (Rattus norvegicus, UniProt P30543); experiment: Displacement of [3H][…] from rat adenosine A2A receptor expressed in CHO cells; type: cell-based
Adenosine receptor A2a [2] = target: T2, Adenosine receptor A2a (Homo sapiens, UniProt P29274); experiment: Displacement of [3H][…] from human adenosine A2A receptor expressed in HEK293 cells; type: cell-based
Rattus norvegicus [3] = organism: Rattus norvegicus; experiment: Inhibition of haloperidol-induced catalepsy in rat assessed as minimal effective dose; type: functional; details: read-out: MED
[4] = Drug concentration in rat brain at 10 mg/kg, po after 2 hrs; type: ADME, organism-based; set-up: dose 10 mg/kg, route oral; details: read-out: Drug uptake
[5] = Plasma concentration in rat at 10 mg/kg, po after 2 hrs; type: ADME, organism-based; set-up: dose 10 mg/kg, route oral
Rattus norvegicus [6] = experiment: Inhibition of haloperidol-induced catalepsy in rat at 10 mg/kg, po after 2 hrs; type: functional; set-up: scale not given: the % may be the effect or the level left
Adenosine receptor A2a [7] = target: T2, Adenosine receptor A2a; experiment: Antagonist activity at human adenosine A2A receptor expressed in CHO cells assessed as inhibition of CGS-21680-induced cAMP production; type: functional, cell-based
[8] = Metabolic stability in rat liver microsomes assessed as intrinsic clearance by LC-MS/MS analysis; type: ADME, Microsome
[9] = Metabolic stability in human liver microsomes assessed as intrinsic clearance by LC-MS/MS analysis; type: ADME, Microsome
Cytochrome P450 3A4 = Cytochrome P450 3A4 (Homo sapiens, UniProt P08684)
Description: Inhibition of CYP3A4 in human liver microsomes by LC-MS/MS analysis

[10] = Lipophilicity, log D at pH 7.4; type: physicochemical; details: buffer
[11] = Aqueous solubility in phosphate-buffered saline at pH 7.4; type: physicochemical
[12] = Dissociation constant, pKa of the compound; type: physicochemical
[13] = target: Voltage-gated inwardly rectifying potassium channel KCNH2 (Homo sapiens, UniProt Q12809); experiment: Inhibition of human ERG by electrophysiology assay
[14] = AUC (0 to 24 hrs) in rat plasma at 10 mg/kg, po; type: ADME, organism-based; set-up: time < 24 hr, dose 10 mg/kg, route oral
Rattus norvegicus [15] = experiment: Inhibition of haloperidol-induced catalepsy in rat at 3 mg/kg, po; type: functional, organism-based; set-up: dose 3 mg/kg
[16] = Aqueous solubility at pH >= […]; type: physicochemical; details: buffer
Rattus norvegicus [17] = experiment: Inhibition of haloperidol-induced catalepsy in rat at 1 mg/kg, po; type: functional, organism-based; set-up: dose 1 mg/kg
Rattus norvegicus [18] = experiment: Inhibition of haloperidol-induced catalepsy in rat at 30 mg/kg, po after 2 hrs; type: functional
[19] = Permeability across MDCK cell membrane by cell-based MDR assay; type: ADME, Canis lupus familiaris; details: dog, MDCK-MDR1; read-out: permeability

Sequence of Cytochrome P450 3A4 (P08684 whole entry): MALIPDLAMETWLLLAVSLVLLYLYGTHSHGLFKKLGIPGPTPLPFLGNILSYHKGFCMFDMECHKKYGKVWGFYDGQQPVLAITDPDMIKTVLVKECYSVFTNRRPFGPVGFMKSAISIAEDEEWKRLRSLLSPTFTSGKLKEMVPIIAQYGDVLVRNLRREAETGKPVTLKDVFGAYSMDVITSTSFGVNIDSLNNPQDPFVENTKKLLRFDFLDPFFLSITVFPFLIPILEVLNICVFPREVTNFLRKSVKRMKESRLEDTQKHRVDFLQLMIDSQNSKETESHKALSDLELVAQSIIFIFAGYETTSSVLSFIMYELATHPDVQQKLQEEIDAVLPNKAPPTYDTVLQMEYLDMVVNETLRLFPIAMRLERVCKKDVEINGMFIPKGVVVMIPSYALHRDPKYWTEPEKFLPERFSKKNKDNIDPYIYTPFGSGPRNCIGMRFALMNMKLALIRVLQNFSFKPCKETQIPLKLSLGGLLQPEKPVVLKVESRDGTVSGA
T2 sequence (P29274 whole entry): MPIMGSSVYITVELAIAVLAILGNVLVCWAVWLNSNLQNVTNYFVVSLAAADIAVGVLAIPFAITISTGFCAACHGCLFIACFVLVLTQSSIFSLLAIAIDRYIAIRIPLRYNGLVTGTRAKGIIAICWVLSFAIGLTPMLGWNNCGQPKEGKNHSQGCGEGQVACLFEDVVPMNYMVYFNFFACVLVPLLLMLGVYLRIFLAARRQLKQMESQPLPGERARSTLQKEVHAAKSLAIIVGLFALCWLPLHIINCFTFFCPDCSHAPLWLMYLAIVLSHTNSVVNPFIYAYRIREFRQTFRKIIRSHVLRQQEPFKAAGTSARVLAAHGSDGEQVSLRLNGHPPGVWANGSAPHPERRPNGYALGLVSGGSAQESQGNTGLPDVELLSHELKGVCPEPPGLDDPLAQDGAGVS
Sequence of Adenosine receptor A2a (Rattus norvegicus, UniProt P30543) (P30543 whole entry): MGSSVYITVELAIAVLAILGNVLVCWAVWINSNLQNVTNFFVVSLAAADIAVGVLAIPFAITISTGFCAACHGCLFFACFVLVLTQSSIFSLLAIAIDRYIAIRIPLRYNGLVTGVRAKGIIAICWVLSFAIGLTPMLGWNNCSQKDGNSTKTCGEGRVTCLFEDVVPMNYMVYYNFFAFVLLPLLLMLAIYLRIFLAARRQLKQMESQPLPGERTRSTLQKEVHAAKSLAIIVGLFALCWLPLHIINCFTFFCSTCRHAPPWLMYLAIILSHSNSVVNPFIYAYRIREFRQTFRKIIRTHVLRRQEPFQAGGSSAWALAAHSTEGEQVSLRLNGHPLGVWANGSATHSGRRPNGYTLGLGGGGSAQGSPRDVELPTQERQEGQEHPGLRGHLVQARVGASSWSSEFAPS
Sequence of Voltage-gated inwardly rectifying potassium channel KCNH2 (Q12809 whole entry): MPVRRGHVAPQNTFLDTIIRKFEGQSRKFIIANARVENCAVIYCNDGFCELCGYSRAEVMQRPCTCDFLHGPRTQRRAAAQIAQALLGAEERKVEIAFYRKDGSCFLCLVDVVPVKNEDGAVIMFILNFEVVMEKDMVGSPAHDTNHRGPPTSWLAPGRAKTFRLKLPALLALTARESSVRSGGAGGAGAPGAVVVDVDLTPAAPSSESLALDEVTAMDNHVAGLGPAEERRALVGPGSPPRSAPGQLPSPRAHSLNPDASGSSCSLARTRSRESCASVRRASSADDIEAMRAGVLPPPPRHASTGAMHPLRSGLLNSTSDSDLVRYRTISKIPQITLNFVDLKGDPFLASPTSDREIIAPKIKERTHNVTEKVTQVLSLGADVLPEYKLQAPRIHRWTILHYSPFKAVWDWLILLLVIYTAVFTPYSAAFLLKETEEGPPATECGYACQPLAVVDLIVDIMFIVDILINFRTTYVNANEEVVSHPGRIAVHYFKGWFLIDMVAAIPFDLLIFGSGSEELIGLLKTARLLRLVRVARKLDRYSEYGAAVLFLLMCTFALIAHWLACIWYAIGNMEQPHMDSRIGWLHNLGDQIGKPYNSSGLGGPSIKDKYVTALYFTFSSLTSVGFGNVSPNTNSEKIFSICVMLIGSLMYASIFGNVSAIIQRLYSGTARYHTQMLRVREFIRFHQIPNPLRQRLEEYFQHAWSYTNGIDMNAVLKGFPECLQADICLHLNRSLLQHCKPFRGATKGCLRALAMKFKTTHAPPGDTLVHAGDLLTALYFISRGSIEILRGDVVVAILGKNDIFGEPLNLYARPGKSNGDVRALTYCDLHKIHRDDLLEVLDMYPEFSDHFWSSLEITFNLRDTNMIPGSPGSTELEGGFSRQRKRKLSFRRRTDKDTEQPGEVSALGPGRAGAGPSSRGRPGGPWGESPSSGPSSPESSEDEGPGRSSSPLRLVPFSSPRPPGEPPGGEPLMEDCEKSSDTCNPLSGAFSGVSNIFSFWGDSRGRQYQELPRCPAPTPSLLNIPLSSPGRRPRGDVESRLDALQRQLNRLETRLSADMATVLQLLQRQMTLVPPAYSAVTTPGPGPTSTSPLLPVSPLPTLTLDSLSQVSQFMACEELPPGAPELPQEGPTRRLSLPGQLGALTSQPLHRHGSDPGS

SMILES	Ratio Ki (Homo sapiens)	Ki (Adenosine receptor A1) [nM]	Ki (Adenosine receptor A2a [2]) [nM]	Ki (Adenosine receptor A2a [1]) [nM]	concentration at 2 h [4] [ng/g]	concentration at 2 h [5] [ng/mL]	IC50 (Adenosine receptor A2a [7]) [nM]	CLint scaled [8] [mL/min/kg]	CLint scaled [9] [mL/min/kg]	IC50 (Cytochrome P450 3A4) [nM]	other results
CC(=O)Nc1cc(-c2cccc(N3CCCC3)n2)nc(-n2nc(C)cc2C)n1	28	7.2	0.26	–	–	–	–	–	–	> 20000	–
CC(=O)Nc1cc(-c2cncc(N3CCOCC3)c2)nc(-n2nc(C)cc2C)n1	74	220	3	–	–	–	–	150	12	> 20000	–
COC1CN(c2cccc(-c3cc(NC(C)=O)nc(-n4nc(C)cc4C)n3)n2)C1	72	34	0.47	1.5	560	150	18	160	25	11000	logD [10]: 3.6; solubility [11]: 30 µg/mL (≈ 76.2 µM); pKa [12]: 3.4
COc1cncc(-c2cc(NC(=O)CN3CCOCC3)nc(-n3nc(C)cc3C)n2)c1	235	940	4	30	–	–	49	150	3	> 20000	logD [10]: 2.4; pKa [12]: 5.3; Activity (Rattus norvegicus [18]): inactive
CC(=O)Nc1cc(-c2cccc(N3CCN(C)CC3)n2)nc(-n2nc(C)cc2C)n1	175	120	0.71	7	91	53	7	25	3	> 20000	IC50 [13]: 540 nM; solubility [11]: 240 µg/mL (≈ 590 µM); pKa [12]: 7.6; Activity (Rattus norvegicus [18]): inactive; Papp [19]: 15.4 ×10⁻⁶ cm/s
CC(=O)Nc1cc(-c2cccc(N(C)C)n2)nc(-n2nc(C)cc2C)n1	133	81	0.61	20	180	290	156	1600	54	25000	minimal effective dose (Rattus norvegicus [3]): 30 mg/kg

Further lines, with some results ahead:

Ratio Ki (Homo sapiens)	Ki (Adenosine receptor A1) [nM]	Ki (Adenosine receptor A2a [2]) [nM]	SMILES	Ki (Adenosine receptor A2a [1]) [nM]	concentration at 2 h [4] [ng/g]	concentration at 2 h [5] [ng/mL]	IC50 (Adenosine receptor A2a [7]) [nM]	CLint scaled [8] [mL/min/kg]	CLint scaled [9] [mL/min/kg]	IC50 (Cytochrome P450 3A4) [nM]	other results
76	55	0.72	COCCN(C)c1cccc(-c2cc(NC(C)=O)nc(-n3nc(C)cc3C)n2)n1	14	870	220	70	490	52	2500	minimal effective dose (Rattus norvegicus [3]): 10 mg/kg; Activity (Rattus norvegicus [6]): 70%
71	65	0.92	COc1cccc(-c2cc(NC(C)=O)nc(-n3nc(C)cc3C)n2)c1	–	–	–	–	–	–	740	–
54	31	0.56	CC(=O)Nc1cc(-c2cccc(N3CCCCC3)n2)nc(-n2nc(C)cc2C)n1	–	–	–	–	–	–	–	–
53	4600	87	CC(=O)Nc1cc(-c2cc(N3CCOCC3)ccn2)nc(-n2nc(C)cc2C)n1	–	–	–	–	–	–	–	–
82	190	2.3	COc1cncc(-c2cc(NC(C)=O)nc(-n3nc(C)cc3C)n2)c1	62	–	–	57	120	35	18000	IC50 [13]: 24000 nM; AUC(0-t) at 24 h [14]: 1430 ng·h/mL; minimal effective dose (Rattus norvegicus [3]): 1 mg/kg; Activity (Rattus norvegicus [15]): Active; solubility [16]: < 10 µg/mL; Activity (Rattus norvegicus [6]): 64%; Activity (Rattus norvegicus [17]): Active
57	440	7.9	CC(=O)Nc1cc(-c2cccc(N)n2)nc(-n2nc(C)cc2C)n1	–	–	–	–	–	–	> 20000	–
21	820	40	CC(=O)Nc1cc(-c2ccncc2)nc(-n2nc(C)cc2C)n1	–	–	–	–	–	–	8500	–
